Laboratory results: publication PMC8457056, “Remodeling of the Fibrillation Pathway of α‐Synuclein by Interaction with Antimicrobial Peptide LL‐III” (Chemistry (Weinheim an Der Bergstrasse, Germany), 2021)

Tests used:
[1] = tested on: neuronal SH‐SY5Y cells stably expressing an α‐Syn‐GFP fusion protein; assay: PFF-induced α-Syn-GFP aggregation in SH-SY5Y cells (structured-illumination microscopy); type: cell-based; conditions: 1 μM LL-III 1 h before PFF; for cells with α‐Syn‐GFP aggregates: 5 independent experiments, at least 150 cells per condition
Procedure: Finally, to test the anti‐aggregation activity of LL‐III in a cellular model, we used the α‐Syn pre‐formed fibril (PFF) model, which involves conversion of recombinant monomeric α‐Syn protein into fibrillar seeds that were added to neuronal SH‐SY5Y cells stably expressing an α‐Syn‐GFP fusion protein.[32, 33] In brief, untreated cells expressed soluble α‐Syn‐GFP that was rather homogenously distributed throughout the cells (Figure 3, left panel). Treatment of cells with PFF seeds caused aggregation of α‐Syn‐GFP, reflected by the formation of GFP‐positive foci (Figure 3, middle and right panel). These α‐Syn‐GFP aggregates could be visualized already 24 h after PFF treatment by fluorescence super‐resolution structured illumination microscopy.
Figure 3 LL‐III decreases PFF‐induced α‐Syn aggregation in neuronal cells. SH‐SY5Y cells stably expressing α‐Syn‐GFP were pre‐treated without or with LL‐III 1 h before adding PFF seeds to induce α‐Syn aggregation. A. α‐Syn was visualized by structured‐illumination microscopy 24 h and 48 h after PFF treatment. Green: α‐Syn (GFP), blue: nuclei (DAPI). B. Quantification of cells with α‐Syn aggregates was based on 5 independent experiments. In total, at least 150 cells were counted per condition. Data were processed by a Kolmogorov‐Smirnov test for Gaussian distribution followed by an unpaired two‐tailed Student's t‐test. *** p≤0.001.
LL‐III was pre‐incubated with α‐Syn‐GFP‐expressing SH‐SY5Y cells at a concentration of 1 μM one hour before PFF treatment to allow cellular uptake of LL‐III. The number of cells with α‐Syn‐GFP aggregates was quantified 24 h and 48 h after PFF seeding. […]
µM) and following the anisotropy changes of the Trp residue. […] The anisotropy was evaluated at 354 nm which corresponds to the maximum of emission of the free peptide. […]
Far-UV circular dichroism (CD) spectra were recorded by using a Jasco J- 715 spectropolarimeter from Jasco Cor-poration (Tokyo, Japan). […] A blank spectrum of 20 mM sodium acetate buffer, pH 5.0, was recorded and subtracted from all the samples spectra. […]

net charge of LL-III = type: physicochemical

Substance: NH2-VNWKKIL GKIIKVVK -CONH2 [LL‐III]
- cells with α‐Syn‐GFP aggregates ([1]; 24 h after PFF seeding, without LL-III 48 %): 30%
- change in number of cells with aggregates ([1]; 24 h and 48 h): significantly decreased
- cells with α‐Syn‐GFP aggregates ([1]; 48 h after PFF seeding, without LL-III 54 %): 36%
- net charge at pH 5.0 (net charge of LL-III; also at the lower pH of pH 5.0): +6
- net charge at pH 7.4 (net charge of LL-III; pH 7.4): +6
